Patent US6277882A, “Utilization of alkyl hydrogen fumarates for treating psoriasis, psoriatic arthritis, neurodermatitis and regional enteritis” (priority 1998, dated 2001)
Counter-ions that a name gives are not always drawn.

Columns and labels:
[1] = high dosages; parenteral, dermal and particularly oral route; cited from earlier work
[2] = Pharmaceutical equivalency: comparison of pharmacokinetic data (methyl hydrogen fumarate level); conditions: rat, in vivo, 100 mg/kg, dosage 100 mg/kg body-wt.
[3] = in vivo; conditions: rat, oral administration; for LD50: in vivo, po
Procedure: Before the clinical trial, the acute toxicity of methyl hydrogen fumarate was tested by oral administration to rats.
Acute toxicity on rats (oral administration)

[4] = test system: Ehrlich ascites tumour; conditions: mice; cited from earlier work
[5] = test system: toxic effects of Mitomycin C and Aflatoxin; conditions: cited from earlier work
[6] = test system: phosphoslipase A2; conditions: cited from earlier work
[7] = test system: psoriasis; conditions: cited from earlier work
[8] = test system: microbes; conditions: cited from earlier work

## O=C(O)/C(O)=C(\O)C(=O)O [dihydroxy fumaric acid]
[1]
  rate of side effects and toxicity: unacceptable rate of side effects and high toxicity

## N#C/C=C/C#N [fumaronitrile]
[1]
  rate of side effects and toxicity: unacceptable rate of side effects and high toxicity

## NC(=O)/C=C/C(N)=O [fumaramide]
[1]
  rate of side effects and toxicity: unacceptable rate of side effects and high toxicity

## COC(=O)/C=C/C(=O)O.[Ca] [Methyl hydrogen fumarate calcium salt]
[2]; female
  Cmax: 107 µg/mL
[2]; male
  Cmax: 51.3 µg/mL

## COC(=O)/C=C/C(=O)O [Methyl hydrogen fumarate, methyl hydrogen fumarate]
[3]; female
  LD50: 1780 mg/kg
  Lowest lethal dose in mg/kg: 1,470.0 mg/kg
[3]; male
  LD50: 2610 mg/kg
  Lowest lethal dose in mg/kg: 2,150.0 mg/kg
[2]; female
  Cmax: 84.8 µg/mL
[2]; male
  Cmax: 69.9 µg/mL

## O=C(O)/C=C/C(=O)O [fumaric acid]
[4]
  growth of the Ehrlich ascites tumour: inhibits the growth of the Ehrlich ascites tumour in mice
[5]
  toxic effects of Mitomycin C and Aflatoxin: reduces the toxic effects of Mitomycin C and Aflatoxin
[6]
  stimulation of phosphoslipase A2: stimulated
[7]
  anti-psoriatic effect: anti-psoriatic
[8]
  antimicrobial effect: antimicrobial effect
